From patent US12521396B2, “Pharmaceutical compositions comprising a MENIN inhibitor” (Kura Oncology, Inc., priority 2023, dated 2026) come the findings set out here.

Data set [1] in a line: Excipient compatibility and formulation stability studies. Type of data set: physicochemical. The settings on record: excipient compatibility studies for tablet formulations. The text has this: Compound 1 drug substance may have a low bulk density, small particle size, and needle-like morphology, all leading to poor flowability. Dry granulation using roller compaction was improved the powder flow and bulk density characteristics to enable capsule-filling. In addition, while glidants such as talc and colloidal silicon dioxide were not effective in improving powder flow and bulk density characteristics, mannitol and microcrystalline cellulose fillers improved the blend flow in the roller compactor.
In particular, these studies indicated less risk of instability in the presence of lactose as a diluent compared to mannitol.

Data set [2] is described as follows: Solid form stability on standing after recrystallization from MEK/IPA. Type of data set: physicochemical. The settings on record: recrystallized from MEK/IPA at 40° C., filtered at 25° C. As to the method: Preparation A: Amorphous Compound 1 (prepared as described in U.S. Pat. No. 10,781,218, which is herein incorporated by reference in its entirety) was dissolved in 1:1 MEK/IPA v/v (4.5 mL/g) at ˜50-65° C. under N2. The solution was cooled to 33-37° C. Seed crystals were added (0.8-1.2 wt % relative to Compound 1) and the mixture was stirred for 4-6 h at 33-37° C. The mixture was cooled to 23-27° C. over 3-4 hours and stirred for 16-24 hours. Isopropanol (8.6-9.1 mL/g Compound 1) was added at 23-27° C. over 9-11 hours and then the mixture was stirred for 5-6 hours. The mixture was cooled to 3-8° C. over 4-6 hours and stirred for at least 24 hours. The resulting solid precipitate was collected at 5° C. The filter cake was rinsed with IPA (1.8-2.1 mL/g Compound 1) at 3-8° C. and dried under vacuum at 45-55° C. for 24-32 hours. XRPD analysis confirmed the isolated material as crystalline Compound 1, Form 1. Purity of 99.5% by HPLC and total residual solvents was about 0.4% wt by ^1H NMR. Recrystallization of Compound 1, Form 1, in MEK/IPA (6 v/12 v) by dissolving in MEK and adding IPA in portions at 25° C., stirring the suspension after addition of each IPA portion, cooling to 5° C., and stirring at 5° C. for 20 h produced a wet cake that was a mixture of two crystalline forms (Form 2 and Form 5) that were not Form 1. […]

On to `CNc1nc(NC2CCN(Cc3ccc4c(cc(C#N)n4C[C@H](C)N4CCN(S(C)(=O)=O)CC4)c3C)CC2)c2cc(CC(F)(F)F)sc2n1` [Compound 1, (S)-4-methyl-5-((4-((2-(methylamino)-6-(2,2,2-trifluoroethyl)thieno[2,3-d]pyrimidin-4-yl)amino)piperidin-1-yl)methyl)-1-(2-(4-(methylsulfonyl)piperazin-1-yl)propyl)-1H-indole-2-carbonitrile], for which, in data set [1], the “Stability of Compound 1 with excipients” value is listed as “impact to Compound 1 stability with certain excipients”. As to `CNc1nc(NC2CCN(Cc3ccc4c(cc(C#N)n4C[C@H](C)N4CCN(S(C)(=O)=O)CC4)c3C)CC2)c2cc(CC(F)(F)F)sc2n1` [Form 1, (S)-4-methyl-5-((4-((2-(methylamino)-6-(2,2,2-trifluoroethyl)thieno[2,3-d]pyrimidin-4-yl)amino)piperidin-1-yl)methyl)-1-(2-(4-(methylsulfonyl)piperazin-1-yl)propyl)-1H-indole-2-carbonitrile], the “Solid form stability upon standing” value in data set [2] was “converted to Form 5”.
